In data set [1] the test system is HepG2 cells. The experiment in a line: Apoptosis assay, Annexin V-FITC/PI double staining. The format is cell-based. The following applies: 1 μM CPT, 24 h. On the procedure:
The apoptosis induction effect of conjugates on HepG2 cells was detected by Annexin V-FITC/PI double staining method. […] After 24 h, the cells were trypsinized (without EDTA), washed with PBS (containing 2% BSA), stained by 5 μL of Annexin V-FITC and 5 μL of 100 μg/mL PI, and re-suspended in 500 μL of binding buffer. After 15 min incubation, cells were determined by flow cytometer.

In data set [2] the test system is HepG2 cells. The experiment in a line: Cell-cycle analysis by flow cytometry (PI). The following applies: 1 μM CPT, 24 h, control cells 21.30%. The data set is classed as cell-based. On the procedure: The cell-cycle percentage of HepG2 was analyzed using flow cytometer. […] After 24 h, the cells were trypsinized, washed with PBS, and fixed with 4 °C pre-cooling 70% ethanol overnight at −20 °C. […] Finally, the cells were stained with propidium iodide (PI) solution for 20 min and determined by flow cytometer.
For orientation: Flow cytometry measures light scatter and fluorescence of single cells or particles in a stream.

Data set [3] relates to HepG2 cells. Description: Subcellular localization by CLSM. The format is cell-based. Conditions: 1 μM CPT, 4 h. The procedure:
HepG2 and L02 cells were seeded on cover glasses embedded in 24-well culture plates at densities of 5 × 10^4 cells/well. After 24 h, conjugates were added at a 1 μM CPT concentration and co-incubated with the cells for 4 h at 37 °C. Then, after the conjugate solutions were removed, the cells were treated with 50 nM MitoTracker deep red for 30 min and 10 mM Basic Orange 14 for 10 min to stain mitochondria and nuclei, respectively (Paleos et al., [2016]). Then, the cells were fixed with 4% paraformaldehyde, washed three times with ice-cold PBS (pH 7.4), and visualized using CLSM.

Data set [4] relates to H22 tumor-bearing mice. The experiment in a line: Toxicity in the efficacy study (body weight, H&E staining). The following applies: for H&E histology of liver and spleen: 1 mg/kg CPT i.v., day 12. The data set is classed as in vivo. The procedure:
(§1) The tumor-bearing mice were randomly divided into five groups (10 per group). The control group mice were administered saline. […] Body weights were recorded daily. At day 12, four mice of each group were sacrificed by carbon dioxide asphyxiation. Tumors, livers and spleens were collected and fixed with 10% paraformaldehyde for 48 h. These tissues were cut into […] sections and processed for H&E staining. The remaining […] in each group were also sacrificed, and the tumors were collected and weighed.

The nature of data set [5]: Pharmacokinetic study after intravenous administration. The data set is classed as in vivo. Conditions: rats; for maximum plasma drug concentration: 1.5 mg/kg CPT i.v., 5 min post administration. The procedure: The rats were fasted for 12 h with free access to water before the experiment. Briefly, 0.5 ml of blood was collected in centrifuge tubes at predefined times of 0.083, 0.33, 0.5, 1, 2, 4, 8, 12, and 24 h. Blood samples were centrifuged at 15,000 rpm for 15 min at 4 °C to isolate plasma fractions. Then, 100 μL of methanol was added to the plasma, and the mixture was extracted with 2 mL hexane and 1 mL dichloromethane. The mixture was vortexed for 10 min and centrifuged at 15,000 rpm for 15 min, and the supernatant was collected and dried using a stream of nitrogen gas. The resultant residue was redissolved in 200 μL methanol and stored at −20 °C until further analysis.

Data set [6] in a line: In vitro CPT release by dialysis in PBS with GSH. The format is physicochemical. The following applies: compared with MPCC and GPCC. On the procedure: A dialysis method was used to determine the in vitro CPT release of conjugates. Conjugates at concentrations of 1 mg/ml were placed in dialysis bags (MWCO 3500 Da) and immersed in 50 ml PBS (pH 7.4) containing different concentrations of GSH (0 μM, 10 μM and 10 mM) to mimic various cellular microenvironment conditions. The drug release was conducted at 100 rpm and 37 °C. During dialysis, 1 ml aliquots were withdrawn from the release medium at predefined intervals, and 1 ml of fresh release medium was added to maintain a constant total volume. The CPT concentrations were determined by HPLC.

Data set [7] concerns HepG2 MCTS. Description: Uptake in multicellular tumor spheroids (MCTS), CLSM. The format is cell-based. The following applies: 1 μM, 8 h, 100 µm depth. On the procedure: Besides that, a multicellular tumor spheroids (MCTS) model, which was more suitable for mimicking the tumor microenvionment, was also employed as a supplement to monolayer cell model for better estimating in vitro targeting efficacy (Kunz-Schughart, [1999]). MCTS model was established by the liquid overlay method as described before (Friedrich et al., [2008]). Briefly, HepG2 cells were seeded in 96-well plates coated with 2% agarose at 2 × 10^3 cells per well and incubated for 5 d. […] Thereafter, MCTS were collected by centrifugation, washed with PBS, and observed by confocal laser scanning microscope (CLSM) (Olympus FV1000, Tokyo, Japan) at 100 µm depth of the MCTS (about the middle section of the sphere).

The nature of data set [8]: Particle size by dynamic light scattering (DLS). The data set is classed as physicochemical. Conditions: conjugates at 10 mg/ml. The procedure: The particle sizes and zeta potential of different conjugates at 10 mg/ml were determined using a dynamic light scattering (DLS) particle size analyzer (Nicomp 380 Zeta Potential/Particle Sizer, Santa Barbara, CA). Following staining with 2% sodium phosphotungstate solution, the conjugate morphologies were observed using transmission electron microscopy (TEM) at an accelerating voltage of 100 kV (JEM 1400 JOEL, Akishima City, Tokyo Prefecture, Japan).

Data set [9] deals with H22 tumor-bearing mice. The experiment in a line: In vivo and ex vivo imaging of tumor targeting. Conditions: in vivo imaging, 1 mg/kg CPT i.v. The procedure:
(§2) An H22 tumor-bearing mice model was established based on previously reported method (Li et al., [2014]). Ascitic fluid containing H22 cells was extracted and diluted with PBS (pH 7.0) to 1 × 10^7 cells/ml. The mice (20–22 g) were anesthetized with 5% chloral hydrate and subcutaneously injected with 0.2 ml of cell suspension for armpit tumor implantation. All animal studies were approved by the China Animal Care and Use Committee and carried out according to the Guide for the Care and Use of Laboratory Animals of Beijing University of Chinese Medicine.
Mice were intravenously injected with conjugates at 1 mg/kg CPT concentration. […] Afterward, the tumor-bearing mice were immediately sacrificed by carbon dioxide asphyxiation. Subsequently, major organs (such as tumor, liver, spleen, brain, heart, kidney, and lung) were harvested and visualized.

The subject of data set [10] is HepG2 cells (GLUT1-overexpressing). Conditions: 1 μM CPT, flow cytometry.
Description: HepG2 and L02 cells were seeded into 96-well culture plates at a density of 1.2 × 10^4 cells/well and incubated for 24 h. After the confluency and morphology were checked, 1 μM conjugates (calculated from CPT) were added to each well and co-incubated with the cells for different times (1, 4, and 8 h). […] The D-GLU was a substrate as well as inhibitor of GLUT1. Then, the GPCC conjugate was co-incubated with the cells for 4 h. At the end of the incubation time, the conjugate solutions were withdrawn from the wells, and the cells were washed three times with cold PBS. After fixation with 4% paraformaldehyde, the cells were qualitatively analyzed by fluorescence microscopy (IX71, Olympus, Tokyo, Japan). After trypsinization and re-suspension of the cells in PBS (pH 7.4), the fluorescence intensity was quantitatively analyzed by flow cytometry (BD FACSAria III, Piscataway, NJ).
Data set [11] relates to H22 tumor-bearing mice. The procedure:
as §2, §1

The test system of data set [12] is L02 cells. Description: MTT cytotoxicity. Conditions: 24 h. The data set is classed as cell-based.
Description: The cytotoxicity of different conjugates on HepG2 and L02 cells was determined using 3-(4,5-dimethyl-2-thiazolyl)-2,5-diphenyl-2-H-tetrazolium bromide (MTT) method. The cells were seeded in 96-well culture plates at a density of 5 × 10^3 cells/well. Then the cells were treated with conjugates and free CPT at CPT concentrations ranging from 3 nM to 20 μM at 37 °C for 24 h when 60–70% confluence was reached. After that, the drug solution was replaced with MTT at a concentration of 5 mg/mL, and co-incubated with cells for another 4 h. The supernatant was discarded and adding with 150 μL DMSO to dissolve the MTT-formazan. The absorbance at 492 nm was recorded using a microplate reader.
The mark [13] stands for this setting: rat, plasma, iv, 1.5 mg/kg, 1.5 mg CPT/kg i.v., two-compartment model.
Setting [14] is: 1.5 mg CPT/kg i.v., two-compartment model.

Like-named read-outs stand apart in the source and are kept apart here.

As for `CC[C@@]1(O)C(=O)OCc2c1cc1n(c2=O)Cc2cc3ccccc3nc2-1` [CPT, camptothecin], in data set [1], the apoptosis induction effect entry is “highest apoptosis induction effect”. In [2], this compound yielded a S phase percentage of 27.49%. Further, in data set [3], the subcellular localization result is “hardly observed in the cells”. Moreover, the body weight change result in data set [4] (1 mg/kg CPT i.v. on days 0, 2, 4, 6, 8, 10) is “smallest increase”. Further, the “H&E histology of liver and spleen” value in [4] is “significant hepatotoxicity and spleen toxicity”. Moreover, in data set [5] (setting [13]), the AUC(0-inf) – broadly, total exposure, with the tail of the curve extrapolated – is 753 ± 92 ng·h/mL; the area under the curve AUC(0-t) (in general, the area under the concentration-time curve up to a stated or last time point) is 748 ± 92 ng·h/mL; the time to peak (Tmax) (in general, the time at which the peak concentration occurs) was determined as 1.98 min; the clearance (commonly the rate of elimination divided by the concentration) is 33.6 mL/min/kg. For the same compound, the half-life (usually the time needed for the level to fall by half in the phase considered) in data set [5] (setting [13]) is 9.9 ± 8.04 min. The Cmax (usually the maximum level reached in the sampled fluid or tissue) in [5] (rat, plasma, iv, 1.5 mg/kg, 1.5 mg CPT/kg i.v., two-compartment model, read-out: Cmax) was 917 ± 50 ng/mL. Moreover, the MRT last in data set [5] (rat, plasma, iv, 1.5 mg/kg, 1.5 mg CPT/kg i.v., two-compartment model, read-out: MRT(0–t)) was 2.4 ± 0.288 h. Also, the MRT inf in [5] (rat, plasma, iv, 1.5 mg/kg, 1.5 mg CPT/kg i.v., two-compartment model, read-out: MRT(0–∞)) was 2.59 ± 0.291 h. Moreover, the Vd in [5] (rat, plasma, iv, 1.5 mg/kg, 1.5 mg CPT/kg i.v., two-compartment model, read-out: V (apparent volume of distribution)) amounted to 10.6 ± 1.18 L/kg. Moreover, the “maximum plasma drug concentration” value in [5] stood at 0.92 µg/mL.
The compound PAMAM–CPT–Cy7 [PCC] returned a S phase percentage in [2] of 34.7%. Further, the subcellular localization entry in data set [3] is recorded as “accumulated in the nuclei of the HepG2 cells”. Further, the CPT release rate entry in [6] was “slightly increased release rate”. Further, the “H&E histology of liver and spleen” value in data set [4] is “significant hepatotoxicity and spleen toxicity”. Moreover, the “cellular uptake in MCTS” value in data set [7] is reported as “obviously stronger cellular uptake than the MPCC conjugate”. In addition, in [5] (setting [14]), the “AUC(0–t)” value is 3594 ± 665 ng·h/mL, the “AUC(0–∞)” value came out at 4038 ± 505 ng·h/mL, the CL was found to be 6.27 ± 0.767 mL/min/kg and the Cmax was found to be 2530 ± 330 ng/mL. For the same compound, in data set [5] (setting [14]), the “MRT(0–t)” value stood at 5.042 ± 0.225 h, the “MRT(0–∞)” value is recorded as 9.566 ± 6.991 h, the “V (apparent volume of distribution)” value is recorded as 5.104 ± 3.531 L/kg and the t1/2 was determined as 0.398 ± 0.045 h. Further, in [5], the “maximum plasma drug concentration” value stood at 2.53 µg/mL. Also, the “particle size (DLS)” value in data set [8] is reported as 17.6 nm. The “fluorescence in tumor sites” value in [9] was “slight fluorescence”.
Consider “Glucose–PEG–PAMAM-s-s–Camptothecin-Cy7 [GPCC]”, for which the apoptosis induction effect entry in [1] was “increased obviously”. This compound also yielded a S phase percentage in data set [2] of 37.15%. Besides, the subcellular localization result in [3] is recorded as “accumulated in HepG2 nuclei more than the MPCC conjugate”. Besides, in [10], the “cellular uptake relative to MPCC” value was “approximately two-fold”. Besides, in [7], the “cellular uptake in MCTS” value is given as “obviously stronger cellular uptake than the MPCC conjugate”. In addition, the tumor inhibition result in data set [11] (1 mg/kg CPT i.v. on days 0, 2, 4, 6, 8, 10, versus CPT suspension and other conjugate groups, p < .05) is given as “significantly better tumor inhibition rates”. The “H&E histology of tumor tissue” value in data set [11] (1 mg/kg CPT i.v., day 12) was “widespread necrosis in tumor tissues”. Further, the tumor weight entry in [11] (1 mg/kg CPT i.v., end of experiment, p < .05) was “significantly less than that of the MPCC conjugate”.
Compound mPEG–PAMAM–CPT–Cy7 [MPCC] displayed a S phase percentage in data set [2] of 32.94%. The cytotoxicity entry in [12] is listed as “lower than that of PCC”. In data set [5] (setting [14]), the “AUC(0–t)” value was found to be 4677 ± 654 ng·h/mL, the “AUC(0–∞)” value was 4895 ± 620 ng·h/mL, the CL came out at 5.17 ± 0.617 mL/min/kg and the highest concentration (Cmax) is 3807 ± 144 ng/mL. In data set [5] (setting [14]), the “MRT(0–t)” value was 4.341 ± 0.9 h, the “MRT(0–∞)” value is 5.81 ± 1.141 h, the “V (apparent volume of distribution)” value came out at 3.207 ± 1.638 L/kg and the t1/2 was 0.258 ± 0.027 h. The “maximum plasma drug concentration” value in data set [5] is 3.81 µg/mL. Also, in [8], the “particle size (DLS)” value was determined as 19.6 nm. Besides, the “time of maximum distribution at tumor sites” value in data set [9] is 4 h.

The values above are taken from paper PMC6058575, “Enhanced anti-hepatocarcinoma efficacy by GLUT1 targeting and cellular microenvironment-responsive PAMAM–camptothecin conjugate” (Drug Delivery, 2017).
